Molecules are shown by their SMILES.

The test system of this assay is pERK1/2(THR202/TYR204) level in AsPC-1 cell line. As to the kind of experiment: KRAS G12D pERK assay. Format: cell-based. The conditions noted are these: Homo sapiens, ASPC1, 2 h, AsPC-1 cells, 2 h compound treatment, HTRF. On the procedure:
AsPC-1 cell line was used in this study. Cells were maintained in RPMI-1640 supplemented with 10% fetal bovine serum (Thermo Fisher), 50 units/mL penicillin and streptomycin (Thermo Fisher) and kept at 37° C. in a humidified atmosphere of 5% CO2 in air. Cells were reinstated from frozen stocks that were laid down within 30 passages from the original cells purchased. 30000 cells per well were seeded into a 96-well plate and incubated overnight. Cells were treated with a 10-point dilution series. The final compound concentration is from 0 to 10 μM. After 2 h compound treatment, cells were lysed, and the pERK1/2(THR202/TYR204) level in the cell lysates was detected by HTRF kit (Cisbio). In brief, a total of 16 μL of cell lysate from each well of a 96-well plate was transferred to a 384-well white assay plate. Lysate from each well was incubated with 2 μL of Eu3+-cryptate (donor) labeled anti-phospho-ERK1/2 and 2 μL of D2 (acceptor) labeled anti-phospho-ERK1/2 antibodies (Cisbio) overnight in dark at room temperature. When donor and acceptor are in close proximity, excitation of the donor with laser triggers a Fluorescence Resonance Energy Transfer (FRET) towards the acceptor, which in turn fluoresces at 655 nm wavelength. FRET signals were measured using a PHERAstar FSX reader (BMG Labtech). IC50 determination was performed by fitting the curve of percent inhibition versus the log of the inhibitor concentration using Dotmatics.
On the technique in general: TR-FRET usually uses a lanthanide donor and a delayed reading to cut background.
Usually IC50 stands for the concentration at which inhibition is half-maximal. Lower therefore signals greater potency in that assay. In turn, `Nc1cc(Cl)c(C(F)(F)F)c(-c2nc3c4c(nc(OCC56CCC(COC5)C6)nc4c2F)N2C[C@H]4CC[C@H](N4)[C@H]2CCO3)c1` [Example 45, 3-((6aR,7S,10R)-13-((3-oxabicyclo[3.2.1]octan-1-yl)methoxy)-1-fluoro-5,6,6a,7,8,9,10,11-octahydro-4-oxa-3,11a,12,14,15-pentaaza-7,10-methanocyclohepta[4,5]cyclo-octa[1,2,3-de]naphthalen-2-yl)-5-chloro-4-(trifluoromethyl)aniline] registered a 50% inhibitory concentration (IC50) of 0.221 µM.
The same measure for `CN1C(=O)OC2CC1(COc1nc3c4c(nc(-c5cc(N)cc(Cl)c5C(F)(F)F)c(F)c4n1)OCC[C@@H]1[C@@H]4CC[C@H](CN31)N4)C2` [Example 46, 5-((((6aR,7S,10R)-2-(5-amino-3-chloro-2-(trifluoromethyl)phenyl)-1-fluoro-5,6,6a,7,8,9,10,11-octahydro-4-oxa-3,11a,12,14,15-pentaaza-7,10-methanocyclohepta[4,5]cyclo-octa[1,2,3-de]naphthalen-13-yl)oxy)methyl)-4-methyl-2-oxa-4-azabicyclo[3.1.1]heptan-3-one]: 4.86 µM; for `CN1C(=O)OC2(C)CC1(COc1nc3c4c(nc(-c5cc(N)cc(Cl)c5C(F)(F)F)c(F)c4n1)OCC[C@@H]1[C@@H]4CC[C@H](CN31)N4)C2` [Example 47, 5-((((6aR,7S,10R)-2-(5-amino-3-chloro-2-(trifluoromethyl)phenyl)-1-fluoro-5,6,6a,7,8,9,10,11-octahydro-4-oxa-3,11a,12,14,15-pentaaza-7,10-methanocyclohepta[4,5]cyclo-octa[1,2,3-de]naphthalen-13-yl)oxy)methyl)-1,4-dimethyl-2-oxa-4-azabicyclo[3.1.1]heptan-3-one]: 1.93 µM; for `CC12COCC(COc3nc4c5c(nc(-c6cc(N)cc(Cl)c6C(F)(F)F)c(F)c5n3)OCC[C@@H]3[C@@H]5CC[C@H](CN43)N5)(C1)C2` [Example 48, 3-chloro-5-((6aR,7S,10R)-1-fluoro-13-((5-methyl-3-oxabicyclo[3.1.1]heptan-1-yl)methoxy)-5,6,6a,7,8,9,10,11-octahydro-4-oxa-3,11a,12,14,15-pentaaza-7,10-methanocyclohepta[4,5]cyclo-octa[1,2,3-de]naphthalen-2-yl)-4-(trifluoromethyl)aniline]: 0.296 µM.
The result for `Cc1cc(N)cc(-c2nc3c4c(nc(OCC56COC(CF)(C5)C6)nc4c2F)N2C[C@H]4CC[C@H](N4)[C@H]2CCO3)c1C(F)(F)F` [Example 49, 3-((6aR,7S,10R)-1-fluoro-13-((1-(fluoromethyl)-2-oxabicyclo[2.1.1]hexan-4-yl)methoxy)-5,6,6a,7,8,9,10,11-octahydro-4-oxa-3,11a,12,14,15-pentaaza-7,10-methanocyclohepta[4,5]cyclo-octa[1,2,3-de]naphthalen-2-yl)-5-methyl-4-(trifluoromethyl)aniline] reads 0.172 µM.
The same measure for `Nc1cc(Cl)c(C(F)(F)F)c(-c2nc3c4c(nc(OCC56COC(CF)(C5)C6)nc4c2F)N2C[C@H]4CC[C@H](N4)[C@H]2CCO3)c1` [Example 50, 3-chloro-5-((6aR,7S,10R)-1-fluoro-13-((1-(fluoromethyl)-2-oxabicyclo[2.1.1]hexan-4-yl)methoxy)-5,6,6a,7,8,9,10,11-octahydro-4-oxa-3,11a,12,14,15-pentaaza-7,10-methanocyclohepta[4,5]cyclo-octa[1,2,3-de]naphthalen-2-yl)-4-(trifluoromethyl)aniline]: 0.109 µM; for `Cc1cc(N)cc(-c2nc3c4c(nc(OCC56CCC(C)(C5)OC6)nc4c2F)N2C[C@H]4CC[C@H](N4)[C@H]2CCO3)c1C(F)(F)F` [Example 51, 3-((6aR,7S,10R)-1-fluoro-13-((1-methyl-2-oxabicyclo[2.2.1]heptan-4-yl)methoxy)-5,6,6a,7,8,9,10,11-octahydro-4-oxa-3,11a,12,14,15-pentaaza-7,10-methanocyclohepta[4,5]cyclo-octa[1,2,3-de]naphthalen-2-yl)-5-methyl-4-(trifluoromethyl)aniline]: 0.272 µM.
